Results published in US6544990B2, “Substituted quinolinecarboxamides as antiviral agents” (Pharmacia & Upjohn Company, priority 2001, dated 2003).

What was measured:
HCMV polymerase = target: T1, HCMV polymerase (Human cytomegalovirus, UniProt P08546); assay: HCMV polymerase scintillation proximity assay (SPA); type: biochemical; details: CMV polymerase
T1 construct: made in house; host or cells: recombinant baculovirus-infected SF-9 cells
Method: The HCMV polymerase assay is performed using a scintillation proximity assay (SPA) as described in several references, such as N. D. Cook, et al., Pharmaceutical Manufacturing International, pages 49-53 (1992); K. Takeuchi, Laboratory Practice, September issue (1992); U.S. Pat. No. 4,568,649 (1986); which are incorporated by reference herein. Reactions are performed in 96-well plates. The assay is conducted in 100 μl volume with 5.4 mM HEPES (pH 7.5), 11.7 mM KCl, 4.5 mM MgCl2, 0.36 mg/ml BSA, and 90 nM 3H-dTTP. Assays are run with and without CHAPS, (3-[(3-Cholamidopropyl)-dimethylammonio]-1-propane-sulfonate) at a final concentration of 2 mM. HCMV polymerase is diluted in enzyme dilution buffer containing 50% glycerol, 250 mM NaCl, 10 mM HEPES (pH 7.5), 100 μg/ml BSA, and 0.01% sodium azide. The HCMV polymerase, which is expressed in recombinant baculovirus-infected SF-9 cells and purified according to literature procedures, is added at 10% (or 10 μl ) of the final reaction volume, i.e., 100 μl. Compounds are diluted in 50% DMSO and 10 μl are added to each well. Control wells contain an equivalent concentration of DMSO. Unless noted otherwise, reactions are initiated via the addition of 6 nM biotinylated poly(dA)-oligo(dT) template/primer to reaction mixtures containing the enzyme, substrate, and compounds of interest. Plates are incubated in a 25 C or 37 C H20 bath and terminated via the addition of 40 μl/reaction of 0.5 M EDTA (pH 8) per well. Reactions are terminated within the time-frame during which substrate incorporation is linear and varied depending upon the enzyme and conditions used, i.e., 30 min. for HCMV polymerase. Ten μl of streptavidin-SPA beads (20 mg/mil in PBS/10% glycerol) are added following termination of the reaction. Plates are incubated 10 min. at 37 C, then equilibrated to room temperature, and counted on a Packard Topcount. Linear regressions are performed and IC50's are calculated using computer software.
A modified version of the above HCMV polymerase assay is performed as described above, but with the following changes: Compounds are diluted in 100% DMSO until final dilution into assay buffer. In the previous assay, compounds are diluted in 50% DMSO. 4.5 mM dithiotherotol (DTT) is added to the polymerase buffer.

HSV polymerase = HSV polymerase (Human herpesvirus 1, UniProt P04293); assay: Polymerase scintillation proximity assay (SPA), HSV; type: biochemical
HSV polymerase, sequence (P04293 whole entry): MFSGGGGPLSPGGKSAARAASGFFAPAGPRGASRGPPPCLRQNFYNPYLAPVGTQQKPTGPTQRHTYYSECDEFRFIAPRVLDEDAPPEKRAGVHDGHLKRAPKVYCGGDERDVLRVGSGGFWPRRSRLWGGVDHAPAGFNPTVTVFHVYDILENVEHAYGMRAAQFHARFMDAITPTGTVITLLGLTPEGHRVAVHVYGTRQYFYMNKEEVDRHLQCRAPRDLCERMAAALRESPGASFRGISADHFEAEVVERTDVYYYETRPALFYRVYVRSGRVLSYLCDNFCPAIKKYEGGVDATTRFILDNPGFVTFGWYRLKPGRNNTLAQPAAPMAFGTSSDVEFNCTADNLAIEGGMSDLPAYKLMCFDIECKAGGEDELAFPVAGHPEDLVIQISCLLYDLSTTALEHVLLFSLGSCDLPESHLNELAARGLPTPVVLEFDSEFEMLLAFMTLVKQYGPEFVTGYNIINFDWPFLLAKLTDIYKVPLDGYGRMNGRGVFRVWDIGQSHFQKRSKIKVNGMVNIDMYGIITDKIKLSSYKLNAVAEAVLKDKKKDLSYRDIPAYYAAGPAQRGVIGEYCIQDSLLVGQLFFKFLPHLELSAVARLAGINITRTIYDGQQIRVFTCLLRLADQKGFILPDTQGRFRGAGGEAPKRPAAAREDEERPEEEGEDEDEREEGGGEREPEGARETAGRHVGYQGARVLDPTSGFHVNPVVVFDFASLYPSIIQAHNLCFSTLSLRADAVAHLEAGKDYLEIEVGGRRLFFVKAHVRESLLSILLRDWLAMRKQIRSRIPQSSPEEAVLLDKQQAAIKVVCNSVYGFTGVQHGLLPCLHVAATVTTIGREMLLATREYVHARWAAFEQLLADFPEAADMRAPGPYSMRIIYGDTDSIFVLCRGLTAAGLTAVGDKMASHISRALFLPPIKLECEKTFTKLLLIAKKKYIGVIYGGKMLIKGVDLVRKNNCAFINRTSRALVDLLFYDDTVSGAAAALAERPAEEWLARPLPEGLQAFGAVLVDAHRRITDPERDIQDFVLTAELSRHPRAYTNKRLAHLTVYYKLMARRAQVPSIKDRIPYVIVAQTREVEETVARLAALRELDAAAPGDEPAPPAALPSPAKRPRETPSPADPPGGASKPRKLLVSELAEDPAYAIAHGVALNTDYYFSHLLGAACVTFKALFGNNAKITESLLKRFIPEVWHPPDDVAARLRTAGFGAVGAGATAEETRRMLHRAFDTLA

VZV polymerase = VZV polymerase (Varicella-zoster virus, UniProt P09252); assay: Polymerase scintillation proximity assay (SPA), VZV; type: biochemical
VZV polymerase, sequence (P09252 whole entry): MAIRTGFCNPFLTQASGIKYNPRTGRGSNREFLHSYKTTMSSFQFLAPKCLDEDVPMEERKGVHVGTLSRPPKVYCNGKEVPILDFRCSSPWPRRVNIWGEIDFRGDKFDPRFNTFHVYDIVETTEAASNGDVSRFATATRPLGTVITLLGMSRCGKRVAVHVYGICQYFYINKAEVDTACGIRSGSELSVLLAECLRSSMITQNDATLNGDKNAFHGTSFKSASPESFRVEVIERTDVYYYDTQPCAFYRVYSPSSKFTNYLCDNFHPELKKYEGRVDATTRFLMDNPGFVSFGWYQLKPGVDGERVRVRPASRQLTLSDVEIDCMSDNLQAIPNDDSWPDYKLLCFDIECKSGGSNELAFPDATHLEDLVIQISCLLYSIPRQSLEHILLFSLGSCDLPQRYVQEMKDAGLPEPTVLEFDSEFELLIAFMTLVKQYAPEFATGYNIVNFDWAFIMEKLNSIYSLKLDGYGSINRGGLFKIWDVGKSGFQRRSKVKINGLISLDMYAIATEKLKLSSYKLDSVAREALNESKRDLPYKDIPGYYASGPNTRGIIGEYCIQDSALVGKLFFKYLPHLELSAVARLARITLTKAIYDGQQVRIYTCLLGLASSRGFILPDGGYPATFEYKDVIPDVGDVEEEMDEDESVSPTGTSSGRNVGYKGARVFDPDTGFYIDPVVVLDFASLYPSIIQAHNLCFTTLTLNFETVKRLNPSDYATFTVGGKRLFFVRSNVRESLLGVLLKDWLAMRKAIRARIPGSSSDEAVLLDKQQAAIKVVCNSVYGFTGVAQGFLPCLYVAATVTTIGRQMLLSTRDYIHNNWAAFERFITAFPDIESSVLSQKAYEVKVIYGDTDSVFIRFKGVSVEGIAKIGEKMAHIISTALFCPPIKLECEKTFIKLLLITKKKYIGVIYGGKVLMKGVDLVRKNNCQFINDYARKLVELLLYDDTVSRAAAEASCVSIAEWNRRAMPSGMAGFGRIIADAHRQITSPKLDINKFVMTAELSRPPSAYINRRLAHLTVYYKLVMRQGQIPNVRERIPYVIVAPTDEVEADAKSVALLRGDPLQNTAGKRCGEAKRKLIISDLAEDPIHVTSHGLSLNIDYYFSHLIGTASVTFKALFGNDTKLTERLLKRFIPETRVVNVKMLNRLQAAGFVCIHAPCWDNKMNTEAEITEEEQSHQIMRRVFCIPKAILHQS

T1 sequence (P08546 whole entry): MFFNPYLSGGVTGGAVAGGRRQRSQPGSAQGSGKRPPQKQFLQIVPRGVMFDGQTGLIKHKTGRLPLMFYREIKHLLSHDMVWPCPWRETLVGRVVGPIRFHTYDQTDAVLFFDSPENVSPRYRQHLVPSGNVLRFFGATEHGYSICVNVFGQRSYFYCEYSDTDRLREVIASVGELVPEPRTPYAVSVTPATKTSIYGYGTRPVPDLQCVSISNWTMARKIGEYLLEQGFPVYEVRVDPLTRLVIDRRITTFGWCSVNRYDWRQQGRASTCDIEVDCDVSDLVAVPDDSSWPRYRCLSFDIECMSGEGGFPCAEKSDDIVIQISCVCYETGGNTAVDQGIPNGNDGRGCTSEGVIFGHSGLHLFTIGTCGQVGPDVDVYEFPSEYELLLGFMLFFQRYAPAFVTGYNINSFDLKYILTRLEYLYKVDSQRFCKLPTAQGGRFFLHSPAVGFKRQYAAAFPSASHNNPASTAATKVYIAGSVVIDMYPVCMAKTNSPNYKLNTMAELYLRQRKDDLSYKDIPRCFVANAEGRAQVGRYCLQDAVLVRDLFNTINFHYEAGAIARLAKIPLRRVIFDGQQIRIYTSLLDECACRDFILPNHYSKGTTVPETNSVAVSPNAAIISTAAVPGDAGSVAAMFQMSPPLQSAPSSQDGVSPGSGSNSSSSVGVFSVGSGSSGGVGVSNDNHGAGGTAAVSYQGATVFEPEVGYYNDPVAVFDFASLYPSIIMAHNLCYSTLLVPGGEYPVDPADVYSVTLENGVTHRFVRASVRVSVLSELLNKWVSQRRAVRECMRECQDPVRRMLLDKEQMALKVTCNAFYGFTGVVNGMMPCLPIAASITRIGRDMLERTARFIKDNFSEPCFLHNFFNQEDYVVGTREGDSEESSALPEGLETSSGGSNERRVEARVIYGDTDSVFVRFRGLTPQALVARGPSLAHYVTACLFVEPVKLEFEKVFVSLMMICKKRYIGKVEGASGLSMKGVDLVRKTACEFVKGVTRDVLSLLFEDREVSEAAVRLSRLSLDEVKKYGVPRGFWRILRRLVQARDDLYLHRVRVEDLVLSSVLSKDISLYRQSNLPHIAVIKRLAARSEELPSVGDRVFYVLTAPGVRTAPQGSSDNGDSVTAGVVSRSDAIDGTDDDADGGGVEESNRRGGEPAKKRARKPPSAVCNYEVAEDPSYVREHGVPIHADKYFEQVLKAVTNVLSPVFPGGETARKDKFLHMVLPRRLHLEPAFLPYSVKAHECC

Row | Compound | IC50 (HCMV polymerase) [µM] | IC50 (HSV polymerase) [µM] | IC50 (VZV polymerase) [µM] | melting point [°C]
1 | Cn1cc(C(=O)NCc2ccc(Cl)cc2)c(=O)c2cc(CN3CCOCC3)cc(C#CCN3CCS(=O)(=O)CC3)c21 [Example 11, N-(4-chlorobenzyl)-8-[3-(1,1-dioxido-4-thiomorpholinyl)-1-propynyl]-1-methyl-6-(4-morpholinylmethyl)-4-oxo-1,4-dihydro-3-quinolinecarboxamide] | 0.36 | 0.28 | 0.18 | 220 to 222
2 | Cn1cc(C(=O)NCc2ccc(Cl)cc2)c(=O)c2cc(CN3CCOCC3)cc(C#CCn3cnc(Cl)c3Cl)c21 [Example 13, N-(4-chlorobenzyl)-8-[3-(4,5-dichloro-1H-imidazol-1-yl)prop-1-ynyl]-1-methyl-6-(morpholin-4-ylmethyl)-4-oxo-1,4-dihydroquinoline-3-carboxamide] | 0.5 | 0.49 | 0.25 | 178 to 181
